Each block holds one molecule with its values, some of them ahead of it.
Assays:
Assay in all cases: -log10 GI50 (growth inhibition 50%) (-log10(M)); higher = more potent growth inhibition
[1] = test system: MCF10F
How it was run: (§1)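 Breast cancer cell lines were treated with each compound for 72 hours at nine doses in 1:5 serial dilution, in triplicate, and luminescence was read against a time-zero plate. A Gompertz curve was fitted to the dose-response data by nonlinear least squares to obtain GI50, the molar concentration giving the set level of growth inhibition, which is reported as its negative logarithm. The logarithm is base 10, and values equal to the top dose carry a < qualifier.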

[2] = test system: MDAMB157
How it was run: as §1

[3] = test system: ZR75B
How it was run: as §1

[4] = test system: MDAMB231
How it was run: as §1

[5] = test system: SUM185PE
How it was run: as §1

[6] = test system: HCC1569
How it was run: as §1

[7] = test system: UACC893
How it was run: as §1

[8] = test system: MDAMB453
How it was run: as §1

[9] = test system: HS578T
How it was run: as §1

[10] = test system: MDAMB415
How it was run: as §1

[11] = test system: SUM229PE
How it was run: as §1

[12] = test system: LY2
How it was run: as §1

[13] = test system: MCF12A
How it was run: as §1

[14] = test system: MDAMB175VII
How it was run: as §1

[15] = test system: HCC3153
How it was run: as §1

[16] = test system: HCC1806
How it was run: as §1

[17] = test system: HCC1428
How it was run: as §1

[18] = test system: MDAMB134VI
How it was run: as §1

[19] = test system: SUM159PT
How it was run: as §1

[20] = test system: SUM149PT
How it was run: as §1

[21] = test system: HCC202
How it was run: as §1

[22] = test system: MDAMB361
How it was run: as §1

[23] = test system: MDAMB468
How it was run: as §1

[24] = test system: HCC2185
How it was run: as §1

[25] = test system: BT474
How it was run: as §1

[26] = test system: MDAMB436
How it was run: as §1

[27] = test system: MCF7
How it was run: as §1

[28] = test system: ZR751
How it was run: as §1

[29] = test system: 184A1
How it was run: as §1

[30] = test system: SUM52PE
How it was run: as §1

[31] = test system: HBL100
How it was run: as §1

[32] = test system: 184B5
How it was run: as §1

[33] = test system: HCC38
How it was run: as §1

[34] = test system: HCC1143
How it was run: as §1

[35] = test system: SUM1315MO2
How it was run: as §1

[36] = test system: HCC1419
How it was run: as §1

[37] = test system: BT483
How it was run: as §1

[38] = test system: HCC1954
How it was run: as §1

[39] = test system: HCC70
How it was run: as §1

[40] = test system: MCF10A
How it was run: as §1

[41] = test system: HCC1937
How it was run: as §1

[42] = test system: S1
How it was run: as §1

[43] = test system: AU565
How it was run: as §1

[44] = test system: BT549
How it was run: as §1

[45] = test system: HCC1395
How it was run: as §1

[46] = test system: HCC1187
How it was run: as §1

[47] = test system: T47D
How it was run: as §1

[48] = test system: BT20
How it was run: as §1

[49] = test system: 600MPE
How it was run: as §1

[50] = test system: SUM225CWN
How it was run: as §1

[51] = test system: T47D_KBluc
How it was run: as §1

[52] = test system: SKBR3
How it was run: as §1

[53] = test system: MX1
How it was run: as §1

[54] = test system: CAMA1
How it was run: as §1

-log10 GI50 [2]: 6.31
-log10 GI50 [4]: 6.57
-log10 GI50 [6]: 6.06
-log10 GI50 [8]: 6.66
-log10 GI50 [10]: 6.58
-log10 GI50 [14]: 7.05
-log10 GI50 [15]: 6.19
-log10 GI50 [16]: 6.78
-log10 GI50 [17]: 5.88
-log10 GI50 [18]: 5.98
-log10 GI50 [21]: 6.26
-log10 GI50 [22]: 6.65
-log10 GI50 [23]: 6.15
-log10 GI50 [24]: 6.91
-log10 GI50 [25]: 5.17
-log10 GI50 [26]: 5.92
-log10 GI50 [27]: 6.45
-log10 GI50 [33]: 7.07
-log10 GI50 [34]: 6.58
-log10 GI50 [36]: 6.15
-log10 GI50 [37]: 6.78
-log10 GI50 [38]: 6.7
-log10 GI50 [41]: 6.69
-log10 GI50 [44]: 6.7
-log10 GI50 [45]: 6.14
-log10 GI50 [46]: 6.33
SMILES: COc1cccc2c1C(=O)c1c(O)c3c(c(O)c1C2=O)C[C@@](O)(C(=O)CO)C[C@@H]3O[C@H]1C[C@H](N)[C@@H](O)[C@H](C)O1 [Epirubicin]
-log10 GI50 [1]: 6.32
-log10 GI50 [3]: 6.94
-log10 GI50 [5]: 6.39
-log10 GI50 [7]: 6.11
-log10 GI50 [9]: 6.44
-log10 GI50 [11]: 6.62
-log10 GI50 [12]: 6.86
-log10 GI50 [13]: 7.26
-log10 GI50 [19]: 6.86
-log10 GI50 [20]: 6.66
-log10 GI50 [28]: 6.6
-log10 GI50 [29]: 6.68
-log10 GI50 [30]: 7.42
-log10 GI50 [31]: 6.88
-log10 GI50 [32]: 8.25
-log10 GI50 [35]: 7.44
-log10 GI50 [39]: 6.35
-log10 GI50 [40]: 6.71
-log10 GI50 [42]: 6.42
-log10 GI50 [43]: 6.84

-log10 GI50 [2]: 7.12
-log10 GI50 [4]: < 3.48
-log10 GI50 [6]: < 3.48
-log10 GI50 [8]: < 3.48
-log10 GI50 [10]: < 3.48
-log10 GI50 [47]: < 3.48
-log10 GI50 [14]: < 3.48
-log10 GI50 [15]: < 3.48
-log10 GI50 [16]: 5.76
-log10 GI50 [17]: < 3.48
-log10 GI50 [18]: < 3.48
-log10 GI50 [48]: < 3.48
-log10 GI50 [21]: 7.69
-log10 GI50 [22]: 6.8
-log10 GI50 [24]: < 3.48
-log10 GI50 [25]: < 3.48
-log10 GI50 [51]: 6.57
-log10 GI50 [27]: 7.34
-log10 GI50 [33]: < 3.48
-log10 GI50 [34]: 7.62
-log10 GI50 [36]: 7.24
-log10 GI50 [37]: 3.63
-log10 GI50 [52]: 6.28
-log10 GI50 [38]: 8.07
-log10 GI50 [41]: < 3.48
-log10 GI50 [44]: < 3.48
-log10 GI50 [45]: < 3.48
-log10 GI50 [46]: 5.59
SMILES: CN(Cc1cnc2nc(N)nc(N)c2n1)c1ccc(C(=O)N[C@@H](CCC(=O)O)C(=O)O)cc1 [Methotrexate]
-log10 GI50 [1]: 7
-log10 GI50 [3]: < 3.48
-log10 GI50 [5]: < 3.48
-log10 GI50 [9]: < 3.48
-log10 GI50 [11]: < 3.48
-log10 GI50 [12]: 7.47
-log10 GI50 [13]: 5.22
-log10 GI50 [19]: < 3.48
-log10 GI50 [20]: < 3.48
-log10 GI50 [49]: 5.39
-log10 GI50 [50]: < 3.48
-log10 GI50 [28]: 7.31
-log10 GI50 [29]: 7.18
-log10 GI50 [30]: < 3.48
-log10 GI50 [31]: < 3.48
-log10 GI50 [32]: 7.37
-log10 GI50 [35]: < 3.48
-log10 GI50 [53]: 7.82
-log10 GI50 [54]: 6.97
-log10 GI50 [39]: < 3.48
-log10 GI50 [40]: 7.39
-log10 GI50 [43]: 5.36

Source: the supplement of paper PMC3937590
